Reference: PMC9151520 (Archives of Toxicology, 2022)
pEC50: −log10 of the molar value. Counter-ions that a name gives are not always drawn. Like-named read-outs stand apart in the source and are kept apart here.

How the values were obtained:
[1] = tested on: p53 signaling (p53RE-bla HCT-116 cells); assay: cells; type: cell-based; conditions: for pEC50 / Emax: Homo sapiens
[2] = tested on: p53 signaling (p53RE-bla HCT-116 cells)
[3] = tested on: p53 signaling (p53RE-bla HCT-116 cells); assay: cells; conditions: Homo sapiens
[4] = tested on: p53 signaling (p53RE-bla HCT-116 cells); remark: listed apart in the source
[5] = HCT-116, read-out: EC50, p53 activation, cherry pick confirmation
[6] = HCT-116, read-out: EC50, p53 activation, primary screening
[7] = HCT-116, read-out: Efficacy, p53 activation, cherry pick confirmation
[8] = HCT-116, read-out: p53 activation EC50, primary screening
[9] = HCT-116, read-out: p53 activation efficacy, primary screening
[10] = HCT-116, read-out: p53 activation EC50, cherry pick confirmation
[11] = HCT-116, read-out: p53 activation efficacy, cherry pick confirmation
[12] = HCT-116, read-out: Efficacy, p53 activation, primary screening

| Compound | Emax [1, 7] [%] | EC50, viability, cherry pick confirmation (p53RE-bla HCT-116 cells) | EC50, viability, primary screening (p53RE-bla HCT-116 cells) | Efficacy, viability, cherry pick confirmation (p53RE-bla HCT-116 cells) | Efficacy, viability, primary screening (p53RE-bla HCT-116 cells) | EC50, p53 activation, cherry pick confirmation [2] | EC50, p53 activation, primary screening [2] | Efficacy, p53 activation, cherry pick confirmation [2] | Efficacy, p53 activation, primary screening [2] | p53 activation EC50, cherry pick confirmation [1] | p53 activation EC50, primary screening [1] | p53 activation efficacy, cherry pick confirmation [1] | p53 activation efficacy, primary screening [1] | Viability EC50, cherry pick confirmation (p53RE-bla HCT-116 cells) | Viability EC50, primary screening (p53RE-bla HCT-116 cells) | Viability efficacy, cherry pick confirmation (p53RE-bla HCT-116 cells) | Viability efficacy, primary screening (p53RE-bla HCT-116 cells) | p53 activation EC50, cherry pick confirmation [2] | p53 activation EC50, primary screening [2] | p53 activation efficacy, cherry pick confirmation [2] | further results |
| --- | --- | --- | --- | --- | --- | --- | --- | --- | --- | --- | --- | --- | --- | --- | --- | --- | --- | --- | --- | --- | --- |
| O=c1[nH]cc(F)c(=O)[nH]1 [5-Fluorouracil] | 98.3 | inactive | inactive | inactive | inactive | inactive | inactive | inactive | inactive |  |  |  |  |  |  |  |  |  |  |  | pEC50 [1, 5]: 4.67; pEC50 [1, 6]: 5.23; pEC50 [3, 6]: 5.42; EC50, p53 activation, cherry pick confirmation [4]: inactive; Efficacy, p53 activation, cherry pick confirmation [4]: inactive |
| CCCCCCNC(=O)n1cc(F)c(=O)[nH]c1=O [Carmofur] | 121 | inactive | inactive | inactive | inactive | inactive | inactive | inactive | inactive |  |  |  |  |  |  |  |  |  |  |  | pEC50 [1, 5]: 4.75; pEC50 [1, 6]: 5.53; pEC50 [3, 6]: 5.68; EC50, p53 activation, cherry pick confirmation [4]: inactive; Efficacy, p53 activation, cherry pick confirmation [4]: inactive |
| O=P(OCC(Br)CBr)(OCC(Br)CBr)OCC(Br)CBr (stereo not shown) [Tris(2,3-dibromopropyl) phosphate] |  |  |  |  |  |  |  |  |  | inactive | inactive | inactive | inactive | inactive | inactive | inactive | inactive | inactive | inactive | inactive | p53 activation efficacy, primary screening [2]: inactive; pEC50 [3, 8]: 4.33; Emax [3, 9]: 38.9%; p53 activation EC50, cherry pick confirmation [4]: inactive; p53 activation efficacy, cherry pick confirmation [4]: inactive |
| CN1CCc2cc3c(cc2C1O)OCO3 (stereo not shown) [Hydrastinine hydrochloride] |  |  |  |  |  |  |  |  |  | inactive | inactive | inactive | inactive | inactive | inactive | inactive | inactive | inactive | inactive | inactive | p53 activation efficacy, primary screening [2]: inactive; pEC50 [3, 8]: 4.54; Emax [3, 9]: 56.5%; p53 activation EC50, cherry pick confirmation [4]: inactive; p53 activation efficacy, cherry pick confirmation [4]: inactive |
| O=c1[nH]c(=O)n([C@H]2C[C@H](O)[C@@H](CO)O2)cc1F [Floxuridine] | 59.4 | inactive | inactive | inactive | inactive | inactive | inactive | inactive | inactive |  |  |  |  |  |  |  |  |  |  |  | pEC50 [1, 5]: 4.80; pEC50 [1, 6]: 6.19; pEC50 [3, 6]: 6.49; EC50, p53 activation, cherry pick confirmation [4]: inactive; Efficacy, p53 activation, cherry pick confirmation [4]: inactive |
| c1ccc2c(c1)c1cccc3ccc4cccc2c4c31 [Benzo(e)pyrene] |  |  |  |  |  |  |  |  |  | inactive |  | inactive |  | inactive | inactive | inactive | inactive | inactive | inactive | inactive | pEC50 [1, 8]: 4.44; Emax [1, 9]: 104%; p53 activation efficacy, primary screening [2]: inactive; pEC50 [3, 8]: 4.70; Emax [3, 9]: 48.3%; p53 activation EC50, cherry pick confirmation [4]: inactive; p53 activation efficacy, cherry pick confirmation [4]: inactive |
| CCN(C)C(=O)Oc1cccc([C@H](C)N(C)C)c1 [Rivastigmine tartrate] |  |  |  |  |  |  |  |  |  | inactive | inactive | inactive | inactive | inactive | inactive | inactive | inactive | inactive |  | inactive | pEC50 [3, 10]: 5.08; Emax [3, 11]: 32.8% |
| COc1cc([C@@H]2c3cc4c(cc3[C@@H](O[C@@H]3O[C@@H]5CO[C@@H](C)O[C@H]5[C@H](O)[C@H]3O)[C@H]3COC(=O)[C@H]23)OCO4)cc(OC)c1O [etoposide, reference compound] | 72.1 | inactive | inactive | inactive | inactive | inactive | inactive | inactive | inactive |  |  |  |  |  |  |  |  |  |  |  | pEC50 [1, 6]: 5.88; Emax [1, 12]: 62.9%; pEC50 [3, 6]: 6.05; Emax [3, 7]: 32.9%; Emax [3, 12]: 22.1%; p53 induction in the presence of microsomes compared with absence of microsomes [4]: inactivity or lower activity |
| c1cc2ccc3cccc4ccc(c1)c2c34 [Pyrene] |  |  |  |  |  |  |  |  |  | inactive | inactive | inactive | inactive | inactive | inactive | inactive | inactive | inactive | inactive | inactive | p53 activation efficacy, primary screening [2]: inactive; pEC50 [3, 8]: 4.66; Emax [3, 9]: 51.6%; p53 activation EC50, cherry pick confirmation [4]: inactive; p53 activation efficacy, cherry pick confirmation [4]: inactive |
| CNC(=O)Oc1cc(C)cc(C(C)C)c1 [Promecarb] |  |  |  |  |  |  |  |  |  | inactive | inactive | inactive | inactive | inactive | inactive | inactive | inactive | inactive |  | inactive | pEC50 [3, 10]: 4.70; Emax [3, 11]: 40.2% |
| CCCCOCCOP(=O)(OCCOCCCC)OCCOCCCC [Tris(2-butoxyethyl) phosphate] |  |  |  |  |  |  |  |  |  | inactive | inactive | inactive | inactive | inactive | inactive | inactive | inactive | inactive | inactive | inactive | p53 activation efficacy, primary screening [2]: inactive; pEC50 [3, 8]: 4.46; Emax [3, 9]: 48.7%; p53 activation EC50, cherry pick confirmation [4]: inactive; p53 activation efficacy, cherry pick confirmation [4]: inactive |
| COP(=O)(OC)O/C(=C\Cl)c1cc(Cl)c(Cl)cc1Cl [Z-Tetrachlorvinphos] |  |  |  |  |  |  |  |  |  | inactive | inactive | inactive | inactive | inactive | inactive | inactive | inactive | inactive |  | inactive | pEC50 [3, 10]: 4.50; Emax [3, 11]: 115% |
| Nc1ccn([C@@H]2O[C@H](CO)[C@@H](O)[C@@H]2O)c(=O)n1 [Cytarabine] | 96.4 | inactive | inactive | inactive | inactive | inactive | inactive | inactive | inactive |  |  |  |  |  |  |  |  |  |  |  | pEC50 [1, 5]: 6.04; Emax [1, 12]: 83.8%; pEC50 [3, 5]: 6.04; Emax [3, 7]: 33.4%; Emax [3, 12]: 31.7% |
